Reference: patent US6284758A, “Angiogenesis promoters and angiogenesis potentiators” (priority 1997, dated 2001)

How the values were obtained:
[1] = system: rat sponge model (angiogenesis); test: Relationship between dose and angiogenesis promotion by compound A in rat sponge model; format: in vivo; conditions: for Hemoglobin amount in sponge vs vehicle (in words): 7 times in total, Dunnett test
Protocol: (§1) The test animal models were prepared in the same manner as in Experimental Example 1.
As a reagent, compound A (4-bromo-6-[3-(4-chlorophenyl)-propoxy]-5-(3-pyridylmethylamino)-3-(2H)-pyridazinone hydrochloride, 35 mg) produced by a conventional method was suspended in 0.5% methylcellulose solution (70 ml) in a mortar and used as a 5 mg/kg administration reagent.
This suspension was diluted two-fold and 5-fold with a vehicle (0.5% methylcellulose solution) to give 2.5 mg/kg administration reagent and 1 mg/kg administration reagent (respective dose 10 ml/kg). The vehicle (0.5% methylcellulose solution) was used as a control. The vehicle was obtained by dissolving methylcellulose (5 g, manufactured by Kishida Chemical Industries, Ltd.) in distilled water (1000 ml).
Each reagent (compound A) and the vehicle were orally administered repeatedly (7 times in total) from the day of sponge embedding at a dose of 10 ml/kg twice a day for 4 days. The sponge was removed on the next day of the final administration, and hemoglobin in the sponge was calculated in the same manner as Experimental in Example 1.
Each group contained […] animals and the obtained data were expressed in mean±standard error. For the evaluation of the angiogenic effect, a Dunnett test was performed using the vehicle administration group as a control to examine significant difference. The significance was ascribed at less than 5% risk rate.

[2] = Acute toxicity, oral, rat; conditions: in vivo, oral administration
[3] = system: rat sponge model (angiogenic effect of b-FGF); test: Potentiation of angiogenic effect of b-FGF by compound A in rat sponge model (b-FGF 1 μg/sponge); format: in vivo; conditions: for Hemoglobin in sponge at 4 days after embedding: mean±standard error, number of animals 10
Protocol: as §1
As a reagent, compound A (4-bromo-6-[3-(4-chlorophenyl)-propoxy]-5-(3-pyridylmethylamino)-3-(2H)-pyridazinone hydrochloride, 50 mg) produced by a conventional method was suspended in 0.5% methylcellulose solution (100 ml) in a mortar and used.
The vehicle (0.5% methylcellulose solution) was obtained by dissolving methylcellulose (5 g, manufactured by Kishida Chemical Industries, Ltd.) in distilled water (1000 ml).
A 0.1% bovine serum albumin (BSA)-physiological saline solution was prepared by dissolving BSA (0.1 g, Sigma) in physiological saline (100 Ml).
A b-FGF solution was prepared by dissolving recombinant b-FGF (20 μg, manufactured by BTI) in 0.1% BSA-physiological saline solution (2 ml).
A hemostatic gelatin sponge was the same as that used in Experimental Example 1.
The test group was divided into 3 groups. A sponge wetted with 100 μl of 0.1% BSA-physiological saline solution was embedded in group 1. A sponge (1 μg b-FGF/sponge) wetted with b-FGF solution (100 μl) was embedded in group 2 and group 3.
The vehicle was orally administered to group 1 and group 2, and the reagent (compound A) was orally administered to group 3 repeatedly from the day of sponge embedding at the dose of 10 ml/kg twice a day for 4 days.
In every test group, the administration began from the evening (single administration) of the very day of embedding. The time of administration of the drug was around 9 a.m. for the first administration and around 7 p.m. for the second administration. In consideration of the effect of the drug, the drug was not administered on the very day of sponge removal (7 times of administration in total).
After 4 days from the embedding, an excess amount of pentobarbital was intravenously injected to the animals for euthanasia. The back was opened, and the tissue surrounding the embedded sponge was removed and the surface of the sponge was photographed. The sponge was taken out and hemoglobin in the sponge was calculated in the same manner as in Experimental Example 1.
The obtained data were expressed in mean±standard error. For the evaluation of the angiogenic effect, a multiple comparison test by Tukey method was performed to examine significant difference. The significance was ascribed at less than 5% risk rate.

[4] = Hypotensive action in rat; format: in vivo; conditions: 5 mg/kg, based on vasodilating action
[5] = system: rat sponge model (angiogenesis); test: Angiogenesis promotion by compound A in rat sponge model (embedded gelatin sponge; hemoglobin in sponge and photograph); format: in vivo
Protocol: Rats were anesthetized by intraperitoneal administration of sodium pentobarbital (50 mg/kg), and the dorsal median line was incised for about 1 cm and an air pocket was made subcutaneously at about 2.5 cm toward the tail side with a Kocher clamp. A hemostatic gelatin sponge (Spongel®, 10 mm×10 mm×7 mm; manufactured by Yamanouchi Pharmaceutical Co., Ltd.) impregnated with physiological saline was embedded therein. The opening was sutured and antisepticized to give a test animal model.
As a reagent, compound A (4-bromo-6-[3-(4-chlorophenyl)-propoxy]-5-(3-pyridylmethylamino)-3-(2H)-pyridazinone hydrochloride, 100 mg) produced by a conventional method was suspended in 0.5% methylcellulose solution (100 ml) in a mortar and used.
As a control, a vehicle (0.5% methylcellulose solution) was used. The vehicle was obtained by dissolving methylcellulose (5 g, manufactured by Kishida Chemical Industries, Ltd.) in distilled water (1000 ml).
The reagent (compound A) and the vehicle were orally administered repeatedly from the day of sponge embedding at a dose of 10 ml/kg once a day for 4 days or 7 days. The administration was performed 30 minutes before anesthetizing the animal on the very day of embedding, and the sponge was removed on the next day of the final administration.
After 4 days or 7 days from the embedding, an excess amount of pentobarbitalwas intravenously injected to the animals for euthanasia. The back was opened, and the tissue surrounding the embedded sponge was removed and the surface of the sponge was photographed. The sponge was taken out and placed in a 0.1M aqueous ammonia (2 ml), which was stood for 4 hr to extract hemoglobin in the sponge. The extract (100 μl) was taken, and hemoglobin was quantitated using an assay kit (hemoglobin B-TESTWAKO; manufactured by Wako Pure Chemical Industries, Ltd.) and used as the index of angiogenesis. The amount of hemoglobin in the sponge was calculated by the following formula.
Amount of hemoglobin in sponge (mg/sponge)=hemoglobin (mg) in extract (100
μl)×20 (total extract 2 ml)
The obtained data were expressed in mean±standard error. For the evaluation of the angiogenic effect, an unpaired t-test was performed using the animals administered with the drug for 4 days or 7 days and respective vehicle groups as control to examine significant difference. The significance was ascribed at less than 5% risk rate.

[6] = Acute toxicity, oral, dog; conditions: in vivo, oral administration
rat and dog = test: Acute toxicity, oral, rat and dog (overall finding); format: in vivo; conditions: oral administration
[7] = day 4 and day 7, also seen with vehicle

Compound | Hemoglobin amount in sponge vs vehicle (in words) ([1]; 2.5 mg/kg orally twice a day) | Hemoglobin amount in sponge vs vehicle (in words) ([1]; 5 mg/kg orally twice a day) | Effect at 5 mg/kg on hemoglobin amount, tendency (in words) ([1]; 5 mg/kg, postulated due to decrease in blood flow from hypotensive action) | Angiogenesis promotion effect at a dose substantially free from hypotensive action (in words) ([1]; rat) | LD50 [2] [mg/kg] | Observation of photograph: neovascularized blood vessels ([3]; day 4, group 3 (b-FGF and compound A, 5 mg/kg, co-administration) vs group 2 (b-FGF alone)) | Hemoglobin content vs group 1 and group 2 (in words) ([3]; group 3 (b-FGF and compound A, 5 mg/kg, co-administration), day 4) | Hemoglobin in sponge at 4 days after embedding ([3]; group 3: compound A 5 mg/kg orally twice a day (7 times in total) plus b-FGF (1 μg/sponge) in sponge, p < 0.01 relative to group 1 and group 2 (Tukey method)) [mg/sponge] | Hypotensive action [4] | Time course of amount of hemoglobin in sponge (in words) [5, 7] | Time course of neovascularized blood vessels on the sponge surface (in words) [5, 7] | Amount of hemoglobin in sponge vs vehicle (in words) ([5]; day 7 of the test) | Observation of photograph: neovascularized blood vessels on the sponge surface ([5]; day 7 of the test, vs vehicle administration group) | Hemoglobin in sponge, 4 days after embedding ([5]; oral, 10 ml/kg (100 mg/100 ml suspension) once a day for 4 days, mean±standard error, number of animals 10, vehicle 6.216 ± 0.903) [mg/sponge] | Hemoglobin in sponge, 7 days after embedding ([5]; oral, 10 ml/kg (100 mg/100 ml suspension) once a day for 7 days, mean±standard error, number of animals 9, vehicle 9.585 ± 0.774, **p < 0.01 relative to vehicle, unpaired t-test) [mg/sponge] | LD50 [6] [mg/kg] | Toxicity (in words) (rat and dog) | Observation of photograph: neovascularized blood vessels ([3]; day 4, group 2 (b-FGF single administration) vs group 1 (BSA-physiological saline)) | Hemoglobin in sponge at 4 days after embedding ([3]; group 2: b-FGF (1 μg/sponge) in sponge, vehicle orally, group 1 (BSA-saline) 5.503 ± 0.562) [mg/sponge]
Cl.O=c1[nH]nc(OCCCc2ccc(Cl)cc2)c(NCc2cccnc2)c1Br [compound A, 4-bromo-6-[3-(4-chlorophenyl)-propoxy]-5-(3-pyridylmethylamino)-3-(2H)-pyridazinone hydrochloride] | showed a significant increase in hemoglobin amount | showed a significant increase in hemoglobin amount | the effect tended to weaken somewhat, though a significant difference was found | superior angiogenesis promotion effect at a dose substantially free from hypotensive action | ≥ 2000 | showed still more neovascularized blood vessels than in group 2 | showed a significant increase in hemoglobin content as compared to group 1 (0.1% BSA-physiological saline solution group) and group 2 (b-FGF single administration group) | 14.995 ± 2.307 | causes hypotensive action in rat | showed an increase in the amount of hemoglobin in sponge at day 4 and day 7 of the test, in proportion to the number of days lapsed | showed an increase of neovascularized blood vessels on the sponge surface at day 4 and day 7 of the test in proportion to the number of days lapsed | showed a significant increase as compared to the vehicle administration group | showed more neovascularized blood vessels than in the vehicle administration group | 6.255 ± 0.807 | 16.351 ± 1.836 | ≥ 2000 | extremely low toxic | – | –
b-FGF: recombinant b-FGF (20 μg, manufactured by BTI); basic fibroblast growth factor | – | – | – | – | – | – | – | – | – | – | – | – | – | – | – | – | – | visually showed more neovascularized blood vessels than in group 1 | 7.285
